# Legend:
# LDL-C = test: Randomized, double-blind 12-week study: lipid-lowering efficacy in patients with prior statin MRSEs; type: in vivo, human (patients)
# Experimental: (§1) A randomized, double-blind, double-dummy, parallel-group, multicenter study evaluating the efficacy and tolerability of fluvastatin XL 80 mg/day, and ezetimibe 10 mg/day, alone or in combination, is conducted according to the ethical principles of the Guidelines for Good Clinical Practice and the Declaration of Helsinki of the World Medical Association. Patients are recruited in 27 centers in Germany, Greece, Norway, Russia, Turkey and the United States. The protocol is approved by local ethics committees or institutional review boards. Written, informed consent before randomization are provided by all patients.
# After a minimum 5-week lead-in, drug wash-out and diet stabilization period, patients who fulfilled the study criteria are randomized in a 1:1:1 ratio to 12-week treatment with fluvastatin XL 80 mg plus matched placebo for ezetimibe 10 mg, or ezetimibe 10 mg plus matched placebo for fluvastatin XL 80 mg, or fluvastatin XL 80 mg plus ezetimibe 10 mg. […] Compliance is assessed by study personnel using pill counts at each visit. […]
# Initial screening includes medical history, physical examination, clinical chemistry, hematology and urinalysis. […] AI and Apo-B are measured at weeks 0, 4, 8 and 12. High sensitivity C-reactive protein (hs-CRP) is measured at weeks 0 and 12. […] LDL-C is calculated using the Friedewald formula when triglyceride levels <400 mg/dL. […]
# [1] = Randomized, double-blind 12-week study: safety, tolerability and recurrence of muscle-related side effects (MRSE); type: in vivo, human (patients)
# Experimental: as §1
# After a minimum 5-week lead-in, drug wash-out and diet stabilization period, patients who fulfilled the study criteria are randomized in a 1:1:1 ratio to 12-week treatment with fluvastatin XL 80 mg plus matched placebo for ezetimibe 10 mg, or ezetimibe 10 mg plus matched placebo for fluvastatin XL 80 mg, or fluvastatin XL 80 mg plus ezetimibe 10 mg. For blinding purposes tablets for fluvastatin XL/placebo and capsules for ezetimibe/placebo are used. Treatment assignment is unbiased and concealed from patients and investigator staff, by a randomization list produced by the sponsor using a validated system that automates the random assignment of treatment groups. Treatment remains fully blinded from the time of randomization until database lock. Trial medication is taken with water at bedtime. Compliance is assessed by study personnel using pill counts at each visit. Patients are to continue a low saturated fat and cholesterol-restricted diet and exercise regimen.
# The study enrolls men and women 18 years of age or older with dyslipidemia who have previously experienced documented MRSEs that have led to cessation of statin treatment, or patients currently receiving statin treatment (other than fluvastatin) whose quality of life is affected by MRSEs and require switching to an alternative treatment. MRSEs include myalgia (defined as muscle ache, pain or discomfort), muscle cramps, lack of strength during effort, heaviness and/or weakness without creatine kinase elevation >3 times upper limit of normal.
# Safety evaluations include regular monitoring of all adverse events, urine, hematology, blood chemistry, as well as physical examination and assessment of vital signs. MRSEs are assessed before and during the study using a standard questionnaire as detailed in Table 1.
# Objectives of this study are to assess LDL-C reduction from baseline of (1) fluvastatin XL 80 mg in combination with ezetimibe 10 mg compared with ezetimibe 10 mg monotherapy and (2) fluvastatin XL 80 mg compared with ezetimibe 10 mg. Objectives of the study are also include (1) to assess the tolerability of fluvastatin XL 80 mg and ezetimibe 10 mg alone or in combination as determined by the rate of recurrence of MRSEs and the rate of recurrence of MRSEs leading to study drug discontinuation; (2) to assess the effect of fluvastatin XL 80 mg alone or in combination with ezetimibe 10 mg on total cholesterol, triglycerides, HDL-C, LDL-C:HDL-C ratio, Apo-AI and Apo-B compared with ezetimibe 10 mg monotherapy; (3) to determine the number of patients in each treatment group who reached target LDL-C levels according to the current National Cholesterol Education Program guidelines, (4) to assess the effect of fluvastatin XL 80 mg and ezetimibe 10 mg alone or in combination on hs-CRP; and (5) to assess the overall safety and tolerability profile of fluvastatin XL 80 mg and ezetimibe 10 mg alone or in combination.
# With a sample size of 70 patients per treatment group, the study has 90% power to detect a difference of 9.65% between the population means, using a two-sided comparison with α equal to 0.05 and assuming a standard deviation of 17.5% in both groups. Efficacy and tolerability analyses are performed using the intent-to-treat population, defined as all patients receiving at least 1 dose of study drug. […]
structure (smiles),measurement,setting,value
O=C1[C@H](CC[C@H](O)c2ccc(F)cc2)[C@@H](c2ccc(O)cc2)N1c1ccc(F)cc1 [Ezetimibe],LDL-C lowering from baseline,"LDL-C; baseline to week 12 or study end (LOCF), fluvastatin XL 80 mg/day, ezetimibe 10 mg/day",15.6%
same,patients achieving a LDL-C level of <100 mg/dL at study end,LDL-C; subgroup of 91 patients in the high-risk category,4%
same,"MRSE recurrence leading to discontinuation, incidence rate",[1]; 12-week treatment,8%
same,"MRSE recurrence leading to discontinuation, number of patients",[1]; 12-week treatment,5 patients
same,"any MRSE recurrence, incidence rate",[1]; 12-week treatment,24%
same,"any MRSE recurrence, number of patients",[1]; 12-week treatment,16 patients
same,patients prematurely discontinued from the study due to adverse events,[1]; 12-week treatment,8 patients
same,patients reporting an adverse event,"[1]; 12-week treatment, safety population",39 patients
same,"median time to first event, MRSE recurrence leading to discontinuation",[1]; in vivo,2.57 weeks
same,"median time to first event, any MRSE recurrence",[1]; in vivo,3.07 weeks
